In patent US10011595B2 (Merck Sharp & Dohme Corp., priority 2014, dated 2018):

biological target: human orexin-2 receptor (Homo sapiens (Human), UniProt O43614); assay: FLIPR Ca2+ Flux Assay, orexin-2 receptor; type: cell-based; conditions: CHO cells expressing the human orexin-2 receptor; agonist 70 pM Ala-6,12 orexin-A; read-out: hOX2R FLIPR IC50
Protocol: In a typical experiment the OX1 and OX2 receptor antagonistic activity of the compounds of the present invention was determined in accordance with the following experimental method. For intracellular calcium measurements, Chinese hamster ovary (CHO) cells expressing the rat orexin-1 receptor or the human orexin-2 receptor, are grown in Iscove's modified DMEM containing 2 mM L-glutamine, […], 1% hypoxanthine-thymidine supplement, 100 U/ml penicillin, 100 μg/ml streptomycin and 10% heat-inactivated fetal calf serum (FCS). The cells are seeded at 20,000 cells/well into Becton-Dickinson black 384-well clear bottom sterile plates coated with poly-D-lysine. All reagents were from GIBCO-Invitrogen Corp. The seeded plates are incubated overnight at 37° C. and 5% CO2. Ala-6,12 human orexin-A as the agonist is prepared as a 1 mM stock solution in 1% bovine serum albumin (BSA) and diluted in assay buffer (HBSS containing 20 mM HEPES, 0.1% BSA and 2.5 mM probenecid, pH7.4) for use in the assay at a final concentration of 70 pM. Test compounds are prepared as 10 mM stock solution in DMSO, then diluted in 384-well plates, first in DMSO, then assay buffer. On the day of the assay, cells are washed 3 times with 100 μl assay buffer and then incubated for 60 min (37° C., 5% CO2) in 60 μl assay buffer containing 1 μM Fluo-4AM ester, 0.02% pluronic acid, and 1% BSA. The dye loading solution is then aspirated and cells are washed 3 times with 100 μl assay buffer. 30 μl of that same buffer is left in each well. Within the Fluorescent Imaging Plate Reader (FLIPR, Molecular Devices), test compounds are added to the plate in a volume of 25 μl, incubated for 5 min and finally 25 μl of agonist is added. Fluorescence is measured for each well at 1 second intervals for 5 minutes and the height of each fluorescence peak is compared to the height of the fluorescence peak induced by 70 pM Ala-6,12 orexin-A with buffer in place of antagonist. For each antagonist, IC50 value (the concentration of compound needed to inhibit 50% of the agonist response) is determined. Alternatively, compound potency can be assessed by a radioligand binding assay (described in Bergman et. al. Bioorg. Med. Chem. Lett. 2008, 18, 1425-1430) in which the inhibition constant (Ki) is determined in membranes prepared from CHO cells expressing either the OX1 or OX2 receptor. The intrinsic orexin receptor antagonist activity of a compound which may be used in the present invention may be determined by these assays.

Chain of human orexin-2 receptor (O43614 whole entry): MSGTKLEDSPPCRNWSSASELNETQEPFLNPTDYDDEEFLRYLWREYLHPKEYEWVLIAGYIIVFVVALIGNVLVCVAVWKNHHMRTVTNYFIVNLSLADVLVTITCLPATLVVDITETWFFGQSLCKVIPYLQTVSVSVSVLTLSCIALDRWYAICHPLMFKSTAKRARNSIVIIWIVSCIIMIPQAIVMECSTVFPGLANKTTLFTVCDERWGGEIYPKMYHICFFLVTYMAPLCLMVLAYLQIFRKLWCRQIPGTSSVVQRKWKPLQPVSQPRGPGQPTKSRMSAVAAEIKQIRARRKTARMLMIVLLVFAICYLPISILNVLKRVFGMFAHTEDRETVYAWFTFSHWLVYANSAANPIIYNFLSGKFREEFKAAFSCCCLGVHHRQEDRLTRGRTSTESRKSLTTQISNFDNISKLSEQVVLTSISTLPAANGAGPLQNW

Question: `CCN(CCN(C)c1nc(C)cc(C)n1)C(=O)c1ccccc1-n1nccn1` [Example A-1, N-(2-((4,6-dimethylpyrimidin-2-yl)(methyl)amino)ethyl)-N-ethyl-2-(2H-1,2,3-triazol-2-yl)benzamide] was tested. Which IC50 did it give?
Answer: 36.5 nM

Question: With `CCN(CCNc1nc(C)cc(C)n1)C(=O)c1ccccc1-n1nccn1` [Example A-5, N-(2-((4,6-dimethylpyrimidin-2-yl)amino)ethyl)-N-ethyl-2-(2H-1,2,3-triazol-2-yl)benzamide] as the compound, how does the IC50 read?
Answer: 1760 nM

Question: For `CCN(CCN(C)c1nc(C)cc(C)n1)C(=O)c1ccccc1C1CC1` [Example B-1, 2-cyclopropyl-N-(2-((4,6-dimethylpyrimidin-2-yl)(methyl)amino)ethyl)-N-ethylbenzamide], which IC50 is on record?
Answer: 26.4 nM

Question: For `CCN(CCN(C)c1nc(C)cc(C)n1)C(=O)c1cccnc1OC(C)C` [Example B-5, N-(2-((4,6-dimethylpyrimidin-2-yl)(methyl)amino)ethyl)-N-ethyl-2-isopropoxynicotinamide], which IC50 is on record?
Answer: 80 nM

Question: Which IC50 does the source give for `CCOc1ncccc1C(=O)N(CC)CCN(C)c1nc(C)cc(C)n1` [Example B-6, N-(2-((4,6-dimethylpyrimidin-2-yl)(methyl)amino)ethyl)-2-ethoxy-N-ethylnicotinamide] here?
Answer: 68.1 nM

Question: Which IC50 does the source give for `CCN(CCN(C)c1nc(C)cc(C)n1)C(=O)c1ccccc1OC(F)(F)F` [Example B-7, N-(2-((4,6-dimethylpyrimidin-2-yl)(methyl)amino)ethyl)-N-ethyl-2-(trifluoromethoxy)benzamide] here?
Answer: 9.4 nM

Question: How did the IC50 turn out when `CCN(CCN(C)c1nc(C)cc(C)n1)C(=O)c1ccccc1OC(F)F` [Example B-8, 2-(difluoromethoxy)-N-(2-((4,6-dimethylpyrimidin-2-yl)(methyl)amino)ethyl)-N-ethylbenzamide] was run?
Answer: 18.5 nM

Question: How did the IC50 turn out when `CCN(CCN(C)c1nc(C)cc(C)n1)C(=O)c1cccnc1-c1ccccc1` [Example B-9, N-(2-((4,6-dimethylpyrimidin-2-yl)(methyl)amino)ethyl)-N-ethyl-2-phenylnicotinamide] was run?
Answer: 26.4 nM

Question: Which IC50 does the source give for `CCN(CCN(C)c1nc(C)cc(C)n1)C(=O)c1cccnc1OCC(F)F` [Example B-10, 2-(2,2-difluoroethoxy)-N-(2-((4,6-dimethylpyrimidin-2-yl)(methyl)amino)ethyl)-N-ethylnicotinamide] here?
Answer: 40.6 nM

Question: How did the IC50 turn out when `CCN(CCN(C)c1nc(C)cc(C)n1)C(=O)c1cccnc1OCC(F)(F)F` [Example B-11, N-(2-((4,6-dimethylpyrimidin-2-yl)(methyl)amino)ethyl)-N-ethyl-2-(2,2,2-trifluoroethoxy)nicotinamide] was run?
Answer: 19.8 nM

Question: With `CCN(CCN(C)c1nc(C)cc(C)n1)C(=O)c1ccc(F)cc1-n1nccn1` [Example B-12, N-(2-((4,6-dimethylpyrimidin-2-yl)(methyl)amino)ethyl)-N-ethyl-4-fluoro-2-(2H-1,2,3-triazol-2-yl)benzamide] as the compound, how does the IC50 read?
Answer: 12.6 nM

Question: For `CCOc1ccccc1C(=O)N(CC)CCN(C)c1nc(C)cc(C)n1` [Example B-13, N-(2-((4,6-dimethylpyrimidin-2-yl)(methyl)amino)ethyl)-2-ethoxy-N-ethylbenzamide], which IC50 is on record?
Answer: 16 nM

Question: How did the IC50 turn out when `CCN(CCN(C)c1nc(C)cc(C)n1)C(=O)c1ccccc1-n1cccn1` [Example B-14, N-(2-((4,6-dimethylpyrimidin-2-yl)(methyl)amino)ethyl)-N-ethyl-2-(1H-pyrazol-1-yl)benzamide] was run?
Answer: 13.9 nM

Question: How did the IC50 turn out when `CCN(CCN(C)c1nc(C)cc(C)n1)C(=O)c1nccnc1-n1nccn1` [Example B-15, N-(2-((4,6-dimethylpyrimidin-2-yl)(methyl)amino)ethyl)-N-ethyl-3-(2H-1,2,3-triazol-2-yl)pyrazine-2-carboxamide] was run?
Answer: 1270 nM

Question: For `CCCc1ccccc1C(=O)N(CC)CCN(C)c1nc(C)cc(C)n1` [Example B-16, N-{2-[(4,6-dimethylpyrimidin-2-yl)(methyl)amino]ethyl}-N-ethyl-2-propylbenzamide], which IC50 is on record?
Answer: 19.9 nM

Question: With `CCN(CCN(C)c1nc(C)cc(C)n1)C(=O)c1ccccc1OCC(F)(F)F` [Example B-17, N-{2-[(4,6-dimethylpyrimidin-2-yl)(methyl)amino]ethyl}-N-ethyl-2-(2,2,2-trifluoroethoxy)-benzamide] as the compound, how does the IC50 read?
Answer: 11.2 nM

Question: For `CCN(CCN(C)c1nc(C)cc(C)n1)C(=O)c1ccccc1CC(F)(F)F` [Example B-18, N-{2-[(4,6-dimethylpyrimidin-2-yl)(methyl)amino]ethyl}-N-ethyl-2-(2,2,2-trifluoroethyl)benzamide], which IC50 is on record?
Answer: 36.2 nM

Question: With `CCN(CCN(C)c1nc(C)cc(C)n1)C(=O)c1ccc(OC)nc1C1CC1` [Example B-19, 2-cyclopropyl-N-{2-[(4,6-dimethylpyrimidin-2-yl)(methyl)amino]ethyl}-N-ethyl-6-methoxypyridine-3-carboxamide] as the compound, how does the IC50 read?
Answer: 32.1 nM

Question: For `CCN(CCN(C)c1nc(C)cc(C)n1)C(=O)c1ccccc1OCC(F)F` [Example B-20, 2-(2,2-difluoroethoxy)-N-{2-[(4,6-dimethylpyrimidin-2-yl)(methyl)amino]ethyl}-N-ethylbenzamide], which IC50 is on record?
Answer: 9.2 nM

Question: With `CCN(CCN(C)c1nc(C)cc(C)n1)C(=O)c1cccnc1CC(F)(F)F` [Example B-21, N-{2-[(4,6-dimethylpyrimidin-2-yl)(methyl)amino]ethyl}-N-ethyl-2-(2,2,2-trifluoroethyl)pyridine-3-carboxamide] as the compound, how does the IC50 read?
Answer: 424 nM

Question: For `CCN(CCN(C)c1nc(C)cc(C)n1)C(=O)c1ncccc1-n1nccn1` [Example B-22, N-{2-[(4,6-dimethylpyrimidin-2-yl)(methyl)amino]ethyl}-N-ethyl-3-(2H-1,2,3-triazol-2-yl)pyridine-2-carboxamide], which IC50 is on record?
Answer: 32.4 nM

Question: With `CCN(CCN(C)c1nc(C)cc(C)n1)C(=O)c1ccccc1CC(F)F` [Example B-23, 2-(2,2-difluoroethyl)-N-{2-[(4,6-dimethylpyrimidin-2-yl)(methyl)amino]ethyl}-N-ethylbenzamide] as the compound, how does the IC50 read?
Answer: 94.9 nM

Question: How did the IC50 turn out when `CCN(CCN(C)c1nc(C)cc(C)n1)C(=O)c1cccnc1-n1cccn1` [Example B-24, N-{2-[(4,6-dimethylpyrimidin-2-yl)(methyl)amino]ethyl}-N-ethyl-2-(1H-pyrazol-1-yl)pyridine-3-carboxamide] was run?
Answer: 12.8 nM

Question: With `CCN(CCN(C)c1nc(C)cc(C)n1)C(=O)c1nccnc1N1CCCC1` [Example B-25, N-{2-[(4,6-dimethylpyrimidin-2-yl)(methyl)amino]ethyl}-N-ethyl-3-pyrrolidin-1-ylpyrazine-2-carboxamide] as the compound, how does the IC50 read?
Answer: 324 nM

Question: For `CCN(CCN(C)c1nc(C)cc(C)n1)C(=O)c1ccccc1C1CCC1` [Example B-26, 2-cyclobutyl-N-{2-[(4,6-dimethylpyrimidin-2-yl)(methyl)amino]ethyl}-N-ethylbenzamide], which IC50 is on record?
Answer: 20.4 nM

Question: With `CCN(CCN(C)c1nc(C)cc(C)n1)C(=O)c1ncccc1-c1ccccc1` [Example B-27, N-{2-[(4,6-dimethylpyrimidin-2-yl)(methyl)amino]ethyl}-N-ethyl-3-phenylpyridine-2-carboxamide] as the compound, how does the IC50 read?
Answer: 12.5 nM

Question: With `CCN(CCN(C)c1nc(C)cc(C)n1)C(=O)c1nccnc1-n1cccn1` [Example B-28, N-{2-[(4,6-dimethylpyrimidin-2-yl)(methyl)amino]ethyl}-N-ethyl-3-(1H-pyrazol-1-yl)pyrazine-2-carboxamide] as the compound, how does the IC50 read?
Answer: 18.7 nM

Question: With `CCN(CCN(C)c1nc(C)cc(C)n1)C(=O)c1ccccc1C1CC1(F)F` (centres unmarked) [Example B-29, 2-(2,2-difluorocyclopropyl)-N-{2-[(4,6-dimethylpyrimidin-2-yl)(methyl)amino]ethyl}-N-ethylbenzamide] as the compound, how does the IC50 read?
Answer: 18.9 nM

Question: For `CCN(CCN(C)c1nc(C)cc(C)n1)C(=O)c1ccccc1N1CCCC1` [Example B-30, N-{2-[(4,6-dimethylpyrimidin-2-yl)(methyl)amino]ethyl}-N-ethyl-2-pyrrolidin-1-ylbenzamide], which IC50 is on record?
Answer: 18.5 nM

Question: How did the IC50 turn out when `CCN(CCN(C)c1nc(C)cc(C)n1)C(=O)c1ccccc1-n1ncnn1` [Example B-31, N-{2-[(4,6-dimethylpyrimidin-2-yl)(methyl)amino]ethyl}-N-ethyl-2-(2H-tetrazol-2-yl)benzamide] was run?
Answer: 8.8 nM

Question: `CCN(CCN(C)c1nc(C)cc(C)n1)C(=O)c1ccccc1-c1ncccn1` [Example B-32, N-{2-[(4,6-dimethylpyrimidin-2-yl)(methyl)amino]ethyl}-N-ethyl-2-pyrimidin-2-ylbenzamide] was tested. Which IC50 did it give?
Answer: 19.5 nM

Question: How did the IC50 turn out when `CCN(CCN(C)c1nc(C)cc(C)n1)C(=O)c1nccnc1-c1ccccn1` [Example B-33, N-{2-[(4,6-dimethylpyrimidin-2-yl)(methyl)amino]ethyl}-N-ethyl-3-pyridin-2-ylpyrazine-2-carboxamide] was run?
Answer: 23 nM
